Laboratory results published in patent US20250057813A1, “APOPTOSIS RELATED PROTEIN IN THE TGF-BETA SIGNALING PATHWAY (ARTS) MIMETIC COMPOUNDS, COMPOSITIONS, METHODS AND USES THEREOF IN INDUCTION OF APOPTOSIS” (Carmel-Haifa University Economic Corporation Ltd., priority 2022, published 2025).
“Also recorded” adds a separate entry of the source.

Assays:
PBMC = assay: Viability assay (SRB), normal cell control; assay type: cell-based, Human; settings: 72 hrs, 10 mM to 0.1 μM
Protocol: The assay was performed at six tenfold serial dilutions of the B3 compounds: 10 mM (stock), 1 mM, 100 μM, 10 μM, 1 μM and 0.1 μM. The screen was performed on 93 cancer cell lines and PBMC as normal cell control. The B3 compound was incubated with the cells for 72 hours. The following cancer cell lines were screened:
The Sulforhodamine B (SRB) assay was used as a screening method. Briefly, the method relies on the property of SRB, to bind stoichiometrically to proteins under mild acidic conditions and to be extracted under basic conditions. Thus, the amount of bound dye can be used as a proxy for cell mass, which can then be extrapolated to measure cell proliferation. The protocol can be divided into four main steps: preparation of treatment, incubation of cells with treatment of choice, cell fixation and SRB staining and absorbance measurement.

XIAP = XIAP (Homo sapiens, UniProt P98170); assay: Nano-DSF binding assay (Crelux); settings: binding curve, dose response
XIAP, sequence (P98170 whole entry): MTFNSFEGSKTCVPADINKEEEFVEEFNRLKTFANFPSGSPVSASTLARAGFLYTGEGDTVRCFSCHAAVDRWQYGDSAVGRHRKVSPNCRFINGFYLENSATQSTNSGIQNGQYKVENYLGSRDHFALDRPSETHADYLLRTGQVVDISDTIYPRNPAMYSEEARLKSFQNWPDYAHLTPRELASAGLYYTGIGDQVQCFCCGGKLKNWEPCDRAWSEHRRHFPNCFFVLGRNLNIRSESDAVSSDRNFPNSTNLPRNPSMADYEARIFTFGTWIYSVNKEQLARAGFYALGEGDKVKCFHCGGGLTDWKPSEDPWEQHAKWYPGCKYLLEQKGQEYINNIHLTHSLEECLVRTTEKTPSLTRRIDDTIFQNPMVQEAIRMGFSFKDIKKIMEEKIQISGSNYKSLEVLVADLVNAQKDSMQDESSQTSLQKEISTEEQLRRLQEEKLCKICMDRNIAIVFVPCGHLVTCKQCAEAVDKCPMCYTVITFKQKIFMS

BCL-2 = BCL-2 (Homo sapiens, UniProt P10415); assay: MST binding assay; settings: binding curve, dose response
BCL-2, sequence (P10415 whole entry): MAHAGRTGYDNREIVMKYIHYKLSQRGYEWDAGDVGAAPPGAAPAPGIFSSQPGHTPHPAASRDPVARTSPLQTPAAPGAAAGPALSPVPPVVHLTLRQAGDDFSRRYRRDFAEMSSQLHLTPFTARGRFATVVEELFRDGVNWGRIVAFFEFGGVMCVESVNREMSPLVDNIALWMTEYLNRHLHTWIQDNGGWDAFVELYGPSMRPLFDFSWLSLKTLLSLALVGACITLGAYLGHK
Protocol: Microscale thermophoresis (MST) binding assays were performed by CreLux, a WuXi AppTech company in Germany, using recombinant ARTS, XIAP, Bcl-2 and cIAP1 proteins. Specifically, for performing experiments with untagged XIAP, a fluorescent label (NT650) was covalently attached to the protein (Maleimide coupling). The labelling was performed in a buffer containing 50 mM HEPES pH 7.0, 150 mM NaCl and 0.005% Tween-20.

[1] = target: T1, complex formation between XIAP and Bcl-2 (Homo sapiens, UniProt P10415+P98170); assay: Co-immunoprecipitation in HCT 116 XIAP KO cells transfected with GFP-XIAP and Flag-Bcl-2; assay type: cell-based; settings: 20 uM B3
T1 construct: expressed in transfected cells; host or cells: HCT 116 XIAP KO cells
T1 sequence (P98170 whole entry): as the sequence (P98170 whole entry) above
T1 sequence (P10415 whole entry): as the sequence (P10415 whole entry) above
Protocol: Protein extracts were prepared with lysis buffer containing 150 mM NaCl, 50 mM Tris-HCl (pH 8), 1% NP-40, 0.5% deoxycholate acid with protease inhibitors (mini complete, Roche). Protein levels were determined and equal amounts were used for each sample. Lysates were pre-cleared with […] mouse IgG (Sigma) coupled with protein A/G sepharose mix (Amersham Biosciences). Complexes were incubated overnight at 4° C., followed by low-speed centrifugation. Supernatants were immunoprecipitated using […] of monoclonal anti-Bcl-2 antibodies (BD) overnight. Protein A/G sepharose beads were added to immunoprecipitate complex for 4 hours, collected and washed four times with PBS and then responded and heated in Sample buffer ×2 for 10 minutes.

binding of XIAP to Bcl-2 = target: T2, binding of XIAP to Bcl-2 (Homo sapiens, UniProt P10415+P98170); assay: BiFC assay in A375 melanoma cells (Bcl-2-VC and XIAP-VN); assay type: cell-based; settings: 20 μM B3, 24 h
T2 construct: expressed in transfected cells; host or cells: A375 melanoma cells
T2 sequence (P98170 whole entry): as the sequence (P98170 whole entry) above
T2 sequence (P10415 whole entry): as the sequence (P10415 whole entry) above
Text: The split-Venus BiFC system was used to evaluate close proximity indicating possible direct binding between pairs of proteins. The proteins were fused either to the N-terminal part of the Venus-YFP (yellow fluorescence protein) (VN) or the C-terminal part (VC). All Venus fragments were fused to the C-terminal sequences of these proteins. The Jun and Fos pair was used as a positive control (P.C.), and the Jun and FosdeltaZIP pair was used as a negative control (N.C.). A vector encoding dsRed was used as a transfection efficiency marker. Cells were seeded in 12 well plates overnight. Cells were then transfected with (Bcl-2-VC, ARTS-VN, XIAP-VN and XIAP-VC) for 24-36 hours. Cells were then treated with apoptotic inducing reagents for 24 hrs.

[2] = target: T3, binding between ARTS and p53 (Mus musculus, UniProt P02340); assay: Co-immuno-precipitation between ARTS and p53 in Sept4/ARTS KO MEFs; assay type: cell-based; settings: B3 for 24 hrs
T3 construct: expressed in transfected cells; host or cells: Sept4/ARTS KO MEFs (per the earlier reading)
T3 sequence (P02340 whole entry): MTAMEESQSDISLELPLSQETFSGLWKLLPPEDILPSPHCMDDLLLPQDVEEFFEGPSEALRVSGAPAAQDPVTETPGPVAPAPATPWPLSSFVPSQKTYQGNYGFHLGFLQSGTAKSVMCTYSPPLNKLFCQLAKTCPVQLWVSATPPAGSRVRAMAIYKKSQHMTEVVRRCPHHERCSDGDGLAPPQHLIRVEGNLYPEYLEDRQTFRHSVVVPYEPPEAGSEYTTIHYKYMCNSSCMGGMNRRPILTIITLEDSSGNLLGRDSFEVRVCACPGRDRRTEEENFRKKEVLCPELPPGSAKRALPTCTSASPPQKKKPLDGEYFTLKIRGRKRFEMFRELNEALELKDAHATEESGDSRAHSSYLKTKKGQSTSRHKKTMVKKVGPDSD
Protocol: Cells were harvested and lysed with radioimmunoprecipitation assay (RIPA) buffer (Tris-HCl pH 7.5 50 mM, NaCl 150 mM, NP-40 (Igepal) 0.3%) containing protease inhibitor cocktail (Complete, Roche) and 100 μg/ml PMSF. Antibodies were used at 5 μg per […] protein and incubated overnight, rotating at 4° C. The next day, agarose beads conjugated to protein A/G (Santa Cruz Biotechnology) were added for 4 h with rotation at 4° C. Samples were centrifuged at 4° C. for 5 min and washed five times with RIPA buffer. Proteins were eluted from beads by 10 min of boiling in sample buffer and separated on 12% SDS-PAGE gel, followed by Western blot analysis.

MEF cells = assay: Western blot analysis of MEF cells (WT and XIAP KO); assay type: cell-based, mouse; settings: 20 μM B3 for 2, 4, 6, 16 hours
Protocol: Cells were lysed in whole-cell extract buffer [25 mM HEPES, pH 7.7, […], 1.5 mM MgCl2, 0.2 mM EDTA, 0.1% Triton X-100, 100 μg/ml phenylmethylsulfonyl fluoride (PMSF) and protease inhibitor cocktail (Roche, 1:100 dilution)] and placed on ice for 30 min (vortexing once after 15 min). After 30 minutes, the samples were centrifuged at 13,000×g for 10 minutes at 4° C. The supernatants containing total protein were measured for protein concentration using Bio-Rad Protein Assay Dye Reagent Concentrate Kit. 40 to […] was separated by sodium dodecyl sulfate-polyacrylamide gel electrophoresis (SDS-PAGE) (12% or 7.5%), followed by transfer to a nitrocellulose membrane. The membranes were blocked with 5% (w/v) non-fat dried skimmed milk powder in PBS supplemented with 0.05% Tween-20 (PBS-T) for 1 h at RT. Next, primary antibodies were added at 4° C. overnight or for 2 h at room temperature. Membranes were then incubated with secondary antibody for 1 h at RT and washed three times for 15 min each with PBS-T. Western Bright ECL (Advansta) was added to the membrane for 30-60 s and analyzed using Image Quant LAS-4000 (GE Healthcare Life Sciences) and Image Quant LAS-4000 software (GE Healthcare Life Sciences).

[3] = target: T4, p53 ubiquitylation by XIAP (Homo sapiens, UniProt P98170); assay: In vitro ubiquitylation assay, recombinant GST-XIAP and p53; assay type: biochemical; settings: 20 and 40 μM B3, 1 hour at 37C
T4 construct: host or cells: bacteria (GST-XIAP)
T4 sequence (P98170 whole entry): as the sequence (P98170 whole entry) above
Protocol: Bacterially expressed His-ARTS was purified using fast protein liquid chromatography (FPLC), and bacterially expressed GST-XIAP was purified using glutathione beads. P53 recombinant protein was purchased from R&D (cat #SP-450). Recombinant p53 and GST-XIAP were incubated. E1, UbcH5b, ubiquitin (Ub), and the appropriate E3 in conjugation buffer (20 mM Tris-Cl [pH 7.6], 100 mM KCl, 5 mM MgCl2, and 1 mM DTT) containing 2 mM ATP at 37C for 1 hour.

Cn1ccnc1C(=O)c1ccc(NC(=O)C(=O)N[C@H](CO)Cc2ccccc2)cc1 [B3, (S)-N1-(1-hydroxy-3-phenylpropan-2-yl)-N2-(4-(1-methyl-1H-imidazole-2-carbonyl)phenyl)oxalamide]
sensitivity of normal cell control to B3 (PBMC): resistant
direct binding to XIAP (XIAP): binds with high affinity
direct binding to Bcl-2 (BCL-2): binds with high affinity
complex formation between XIAP and Bcl-2 [1]: significantly increase
binding of XIAP to Bcl-2 (binding of XIAP to Bcl-2): slightly increased; also recorded: increased
binding between ARTS and p53 [2]: reduces
MDM2 levels (MEF cells): reduction
XIAP levels (MEF cells): reduction
cPARP or caspase3 (MEF cells): elevation
p53 levels (MEF cells): elevation
p53 Ubiquitylation by XIAP [3]: dose-dependent inhibition
